# Data taken from ChEMBL document CHEMBL1201862, “PubChem BioAssay data set” (2004).
#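 Interpolation was linear, between the two tested concentrations surrounding the appropriate level; five concentrations were tested over 48 hours in 96-well plates. GI50 is the concentration that inhibits growth by half.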 Calls of active or inactive are those of the source. No stated cut-off is given here; in the data, active = GI50 up to about 1.1 µM and inactive = higher.
# Tests used:
# Experiment in all cases: DTP human tumour cell line panel, 48 h
# OVCAR-3 = test system: OVCAR-3
# KM12 = test system: KM12
# OVCAR-5 = test system: OVCAR-5
# SNB-19 = test system: SNB-19
# SNB-75 = test system: SNB-75
# CCRF-CEM = test system: CCRF-CEM
# ACHN = test system: ACHN
# SR = test system: SR
# EKVX = test system: EKVX
# HOP-92 = test system: HOP-92
# M19-MEL = test system: M19-MEL
# 786-0 = test system: 786-0
# XF498 = test system: XF498
# DLD-1 = test system: DLD-1
# OVCAR-8 = test system: OVCAR-8
# SF-295 = test system: SF-295
# RXF 393 = test system: RXF 393
# SNB-78 = test system: SNB-78
# CAKI-1 = test system: CAKI-1
# A498 = test system: A498
# NCI-H460 = test system: NCI-H460
# UACC-257 = test system: UACC-257
# KM-20L2 = test system: KM-20L2
# SF-539 = test system: SF-539
# HT-29 = test system: HT-29
# SK-MEL-28 = test system: SK-MEL-28
# K562 = test system: K562
# NCI-H23 = test system: NCI-H23
# COLO 205 = test system: COLO 205
# OVCAR-4 = test system: OVCAR-4
# SN12C = test system: SN12C
# LOX IMVI = test system: LOX IMVI
# Malme-3M = test system: Malme-3M
# TK-10 = test system: TK-10
# U-251 = test system: U-251
# A549 = test system: A549
# RPMI-8226 = test system: RPMI-8226
# SF-268 = test system: SF-268
# DMS-114 = test system: DMS-114
# UACC-62 = test system: UACC-62
# SK-MEL-5 = test system: SK-MEL-5
# HCT-15 = test system: HCT-15
# DMS-273 = test system: DMS-273
# IGROV-1 = test system: IGROV-1
# HOP-18 = test system: HOP-18
# SW-620 = test system: SW-620
# HCT-116 = test system: HCT-116
# SK-MEL-2 = test system: SK-MEL-2
# HOP-62 = test system: HOP-62
# HL-60 = test system: HL-60
# NCI-H522 = test system: NCI-H522
# HCC 2998 = test system: HCC 2998
# MOLT-4 = test system: MOLT-4
# M14 = test system: M14
# UO-31 = test system: UO-31
# LXFL 529 = test system: LXFL 529
# SK-OV-3 = test system: SK-OV-3
# PC-3 = test system: PC-3
# DU-145 = test system: DU-145
# T47D = test system: T47D
# MCF7 = test system: MCF7
# BT-549 = test system: BT-549
# MDA-MB-231 = test system: MDA-MB-231
# MDA-MB-435 = test system: MDA-MB-435
# Hs-578T = test system: Hs-578T
# NCI-H226 = test system: NCI-H226
# NCI/ADR-RES = test system: NCI/ADR-RES
# MDA-N = test system: MDA-N
smiles,measurement,setting,value
O=C1CCC2(c3ccccc3)OCC([C@@H](O)c3ccccc3)N12 (stereo not given in full),GI50,OVCAR-3,> 100 µM (inactive)
same,GI50,KM12,> 100 µM (inactive)
same,GI50,OVCAR-5,> 100 µM (inactive)
same,GI50,SNB-19,> 100 µM (inactive)
same,GI50,SNB-75,> 100 µM (inactive)
same,GI50,CCRF-CEM,> 100 µM (inactive)
same,GI50,ACHN,> 100 µM (inactive)
same,GI50,SR,> 100 µM (inactive)
same,GI50,EKVX,> 100 µM (inactive)
same,GI50,HOP-92,> 100 µM (inactive)
same,GI50,M19-MEL,> 100 µM (inactive)
same,GI50,786-0,> 100 µM (inactive)
same,GI50,XF498,> 100 µM (inactive)
same,GI50,DLD-1,> 100 µM (inactive)
same,GI50,OVCAR-8,> 100 µM (inactive)
same,GI50,SF-295,> 100 µM (inactive)
same,GI50,RXF 393,> 100 µM (inactive)
same,GI50,SNB-78,> 100 µM (inactive)
same,GI50,CAKI-1,> 100 µM (inactive)
same,GI50,A498,> 100 µM (inactive)
same,GI50,NCI-H460,> 100 µM (inactive)
same,GI50,UACC-257,> 100 µM (inactive)
same,GI50,KM-20L2,> 100 µM (inactive)
same,GI50,SF-539,> 100 µM (inactive)
same,GI50,HT-29,> 100 µM (inactive)
same,GI50,SK-MEL-28,> 100 µM (inactive)
same,GI50,K562,> 100 µM (inactive)
same,GI50,NCI-H23,> 100 µM (inactive)
same,GI50,COLO 205,> 100 µM (inactive)
same,GI50,OVCAR-4,> 100 µM (inactive)
same,GI50,SN12C,> 100 µM (inactive)
same,GI50,LOX IMVI,> 100 µM (inactive)
same,GI50,Malme-3M,> 100 µM (inactive)
same,GI50,TK-10,> 100 µM (inactive)
same,GI50,U-251,> 100 µM (inactive)
same,GI50,A549,> 100 µM (inactive)
same,GI50,RPMI-8226,> 100 µM (inactive)
same,GI50,SF-268,> 100 µM (inactive)
same,GI50,DMS-114,> 100 µM (inactive)
same,GI50,UACC-62,> 100 µM (inactive)
same,GI50,SK-MEL-5,> 100 µM (inactive)
same,GI50,HCT-15,> 100 µM
same,GI50,DMS-273,> 100 µM (inactive)
same,GI50,IGROV-1,> 100 µM (inactive)
same,GI50,HOP-18,> 100 µM (inactive)
same,GI50,SW-620,> 100 µM (inactive)
same,GI50,HCT-116,> 100 µM (inactive)
same,GI50,SK-MEL-2,> 100 µM (inactive)
same,GI50,HOP-62,> 100 µM (inactive)
NC1C=NNC1=O (stereo not given),GI50,KM12,> 100 µM (inactive)
same,GI50,OVCAR-5,> 100 µM (inactive)
same,GI50,SNB-19,> 100 µM (inactive)
same,GI50,HL-60,> 100 µM (inactive)
same,GI50,SNB-75,> 100 µM (inactive)
same,GI50,NCI-H522,> 100 µM (inactive)
same,GI50,CCRF-CEM,> 100 µM (inactive)
same,GI50,ACHN,> 100 µM (inactive)
same,GI50,EKVX,> 100 µM (inactive)
same,GI50,XF498,> 100 µM (inactive)
same,GI50,DLD-1,> 100 µM (inactive)
same,GI50,OVCAR-8,> 100 µM (inactive)
same,GI50,SF-295,> 100 µM (inactive)
same,GI50,RXF 393,> 100 µM (inactive)
same,GI50,SNB-78,> 100 µM (inactive)
same,GI50,CAKI-1,> 100 µM (inactive)
same,GI50,UACC-257,> 100 µM (inactive)
same,GI50,KM-20L2,> 100 µM (inactive)
same,GI50,SF-539,> 100 µM (inactive)
same,GI50,HCC 2998,> 100 µM (inactive)
same,GI50,HT-29,> 100 µM (inactive)
same,GI50,SK-MEL-28,> 100 µM (inactive)
same,GI50,K562,> 100 µM (inactive)
same,GI50,NCI-H23,> 100 µM (inactive)
same,GI50,COLO 205,> 100 µM (inactive)
same,GI50,OVCAR-4,> 100 µM (inactive)
same,GI50,SN12C,> 100 µM (inactive)
same,GI50,LOX IMVI,> 100 µM (inactive)
same,GI50,Malme-3M,> 100 µM (inactive)
same,GI50,MOLT-4,> 100 µM (inactive)
same,GI50,TK-10,> 100 µM (inactive)
same,GI50,M14,> 100 µM (inactive)
same,GI50,U-251,> 100 µM (inactive)
same,GI50,UO-31,> 100 µM (inactive)
same,GI50,A549,> 100 µM (inactive)
same,GI50,RPMI-8226,> 100 µM (inactive)
same,GI50,SF-268,> 100 µM (inactive)
same,GI50,DMS-114,> 100 µM (inactive)
same,GI50,UACC-62,> 100 µM (inactive)
same,GI50,SK-MEL-5,> 100 µM (inactive)
same,GI50,HCT-15,> 100 µM
same,GI50,LXFL 529,> 100 µM (inactive)
same,GI50,DMS-273,> 100 µM (inactive)
same,GI50,IGROV-1,> 100 µM (inactive)
same,GI50,HOP-18,< 0.01 µM (active)
same,GI50,SW-620,> 100 µM (inactive)
same,GI50,SK-OV-3,> 100 µM (inactive)
same,GI50,SK-MEL-2,> 100 µM (inactive)
CN(C)C(=S)/N=c1\ssc(=S)n1Cc1ccccc1,GI50,OVCAR-3,0.168 µM (active)
same,GI50,KM12,0.24 µM (active)
same,GI50,OVCAR-5,20 µM (inactive)
same,GI50,SNB-19,1.08 µM (active)
same,GI50,HL-60,0.338 µM (active)
same,GI50,SNB-75,0.203 µM (active)
same,GI50,NCI-H522,0.063 µM (active)
same,GI50,CCRF-CEM,0.411 µM (active)
same,GI50,ACHN,0.807 µM (active)
same,GI50,SR,0.129 µM (active)
same,GI50,PC-3,249 nM (active)
same,GI50,EKVX,2.15 µM (inactive)
same,GI50,DU-145,1.79 µM (inactive)
same,GI50,HOP-92,0.342 µM (active)
same,GI50,T47D,6.31 µM (inactive)
same,GI50,M19-MEL,0.318 µM (active)
same,GI50,786-0,0.361 µM (active)
same,GI50,XF498,0.21 µM (active)
same,GI50,DLD-1,0.348 µM (active)
same,GI50,OVCAR-8,0.51 µM (active)
same,GI50,SF-295,0.229 µM (active)
same,GI50,MCF7,820 nM (active)
same,GI50,RXF 393,0.172 µM (active)
same,GI50,SNB-78,0.8 µM (active)
same,GI50,CAKI-1,0.676 µM (active)
same,GI50,A498,0.51 µM (active)
same,GI50,BT-549,> 100 µM (inactive)
same,GI50,NCI-H460,0.34 µM (active)
same,GI50,MDA-MB-231,631 nM (active)
same,GI50,UACC-257,0.43 µM (active)
same,GI50,KM-20L2,0.195 µM (active)
same,GI50,SF-539,0.309 µM (active)
same,GI50,HCC 2998,0.57 µM (active)
same,GI50,MDA-MB-435,33.7 nM (active)
same,GI50,HT-29,0.308 µM (active)
same,GI50,SK-MEL-28,0.661 µM (active)
same,GI50,K562,0.206 µM (active)
same,GI50,NCI-H23,0.465 µM (active)
same,GI50,COLO 205,0.288 µM (active)
same,GI50,OVCAR-4,3.42 µM (inactive)
same,GI50,SN12C,0.867 µM (active)
same,GI50,LOX IMVI,0.455 µM (active)
same,GI50,Hs-578T,193 nM (active)
same,GI50,Malme-3M,0.243 µM (active)
same,GI50,MOLT-4,0.569 µM (active)
same,GI50,TK-10,1.45 µM (inactive)
same,GI50,M14,0.301 µM (active)
same,GI50,U-251,0.419 µM (active)
same,GI50,UO-31,0.667 µM (active)
same,GI50,NCI-H226,2.61 µM (inactive)
same,GI50,A549,0.78 µM (active)
same,GI50,RPMI-8226,0.785 µM (active)
same,GI50,SF-268,1.82 µM (inactive)
same,GI50,DMS-114,0.201 µM (active)
same,GI50,UACC-62,0.312 µM (active)
same,GI50,SK-MEL-5,0.217 µM (active)
same,GI50,NCI/ADR-RES,119 nM (active)
same,GI50,HCT-15,0.237 µM
same,GI50,LXFL 529,0.459 µM (active)
same,GI50,DMS-273,0.25 µM (active)
same,GI50,IGROV-1,0.632 µM (active)
same,GI50,HOP-18,2.22 µM (inactive)
same,GI50,SW-620,0.201 µM (active)
same,GI50,HCT-116,0.344 µM (active)
same,GI50,SK-OV-3,0.434 µM (active)
same,GI50,SK-MEL-2,0.365 µM (active)
same,GI50,MDA-N,34.8 nM (active)
same,GI50,HOP-62,0.546 µM (active)
